Measured values: patent publication US20260091086A1, “POLYPEPTIDE COMBINATIONS AND USES THEREOF” (MEDIMMUNE LIMITED, priority 2024, published 2026)
Numbered stars: 1 amine (or outer) side, 2 acyl side, 3 side chain; on linkers, the order of the positions; unused ones are H or OH. Square brackets hold non-standard residues; d marks the D form. Side chains are listed from the residue outwards. Ends that are not written are not given here. * marks the point of attachment. C18 diacid = O=C(O)CCCCCCCCCCCCCCCCC(=O)*; γGlu = O=C(O)[C@H](CCC(=O)[*:2])N[*:1]; αMeF = C[C@](N)(Cc1ccccc1)C(=O)O; AEEA = NCCOCCOCC(=O)O; Aib = CC(C)(N)C(=O)O

Tests used:
[1] = tested on: AMY3R/CTR; experiment: Relative potency ratio, cAMP accumulation assays with 0.1% BSA, rat receptors; assay type: cell-based; conditions: 0.1% bovine serum albumin, n ≥ 5; potencies relative to pramlintide 100%
Protocol: Target engagement was estimated in the following way for each compound. The maximum concentration (Cmax) after subcutaneous injection was measured in separate rat pharmacokinetic studies and was dose-adjusted to the tested dose levels when appropriate, assuming dose linearity. Plasma protein binding was determined in vitro using 3B Pharmaceutical's Escalate Equilibrium Shift Assay or an in-house Surface Plasmon Resonance (SPR) assay. Peptide in vitro potency was determined via HTRF CAMP accumulation assay using HEK293 cells recombinantly expressing the rat calcitonin receptor or rat amylin receptor (calcitonin receptor plus RAMP3) in saline buffer containing 0.1% bovine serum albumin. The in vitro potencies (IC50s) for amylin and calcitonin were adjusted to unbound values by taking into account the albumin concentration in the assay and fraction unbound data, according to an established method (Wan H and Bergström F (2007), High Throughput Screening of Drug-Protein Binding in Drug Discovery, Journal of Liquid Chromatography & Related Technologies, 30:5, 681-700; doi: 10.1080/10826070701190989). Finally, the target engagement was calculated as the unbound Cmax divided by the unbound IC50, both for amylin and calcitonin. The Emax model was defined as aversion=E0+Emax×(ENG^h/(ENG^h+ED50^h)), where E0 is the baseline aversion, Emax is the maximum induced aversion, ENG is the receptor engagement, and h is the slope (Hill) parameter. Parameter estimation was performed according to a maximum likelihood approach with an additive error model, incorporating data from all compounds simultaneously. Uncertainty of parameter estimates was determined by bootstrapping, sampling single measurements randomly with replacement within each experiment (N=500). Numeric analyses were performed in MATLAB (R2023b; The MathWorks, Natick, MA). The aversion data are given as mean and standard error (N=9-11 per group). In this experiment, the LAA/SARA1 was that of SEQ ID NO: 11, SARA2 was eloralintide, DACRA1 was cagrilintide, and DACRA2 was petrelintide.

[2] = tested on: AMY3R/CTR; experiment: Relative potency ratio, cAMP accumulation assays with 0.1% BSA, human receptors; assay type: cell-based; conditions: 0.1% bovine serum albumin, n ≥ 5; potencies relative to pramlintide 100%
[3] = biological target: human amylin receptor 3 (hAMY3R; complex of hCTR and hRAMP3) (human); experiment: cell-based or functional assay
[4] = biological target: rat amylin receptor (calcitonin receptor plus RAMP3) (rat) (UniProt P32214); experiment: cell-based or functional assay
[5] = tested on: DIO rats; experiment: Example 7: 28-day LAA and GLP/GIP dual agonist study; assay type: in vivo, rat; conditions: for body weight change: day 28
Protocol: Study Design: Male rats were fed a high-fat diet (45% kcal fat-D12451; Research Diets) or chow control matched diet (10% kcal fat-D12450K; […] Control rats were dosed SC with Vehicle. Body weight was monitored daily through-out study and body composition measured by EchoMRI at baseline (week-1) and end of study (week 4). […]

[6] = tested on: Wistar Han rats; experiment: Example 4: 3-month subcutaneous study, body weight; assay type: in vivo, rat; conditions: for Body Weight Comparison, Day 92 vs. Control Group 1 Day 92 / Body Weight Gain (Day 92 vs Day −1) / Mean Body Weight at Day 92: dose levels 0/5, Group 5
Protocol: Study Design: Male (9-11 weeks of age) and female (10-11 weeks of age) Wistar Han rats were SC administered with Vehicle/Vehicle (group 1—for LAA of SEQ ID NO: 11 and GLP-1/GCG of SEQ ID NO: 35), LAA of SEQ ID NO: 11 and GLP-1/GCG of SEQ ID NO: 35 (group 2—500 and 5 μg/kg respectively), LAA of SEQ ID NO: 11 and GLP-1/GCG of SEQ ID NO: 35 (group 3—2000 and 5 μg/kg respectively), SEQ ID NO: 11 and Vehicle for SEQ ID NO: 35 (group 4—2000 μg/kg and 0 μg/kg respectively), or Vehicle for SEQ ID NO: 11 and SEQ ID NO: 35 (group 5—0 and 5 μg/kg respectively) daily for 91 days. Dosing for LAA of SEQ ID NO: 11 was dose escalated with group 2 receiving 250 μg/kg from day 1-5 and 500 μg/kg for duration of study, and groups 3 and 4 receiving 250 μg/kg SEQ ID NO: 11 from day 1-5, 500 μg/kg SEQ ID NO: 11 from days 7-13 and 2000 μg/kg for duration of study. There was a n=10/group per gender.

[7] = GLP/GIP mono-treatment 2 nmol/kg
[8] = GLP/GIP mono-treatment 30 nmol/kg

Sequence of human amylin receptor 3 (hAMY3R; complex of hCTR and hRAMP3) (human) (chain, as listed by the source limits assumed, chain 1 of 2): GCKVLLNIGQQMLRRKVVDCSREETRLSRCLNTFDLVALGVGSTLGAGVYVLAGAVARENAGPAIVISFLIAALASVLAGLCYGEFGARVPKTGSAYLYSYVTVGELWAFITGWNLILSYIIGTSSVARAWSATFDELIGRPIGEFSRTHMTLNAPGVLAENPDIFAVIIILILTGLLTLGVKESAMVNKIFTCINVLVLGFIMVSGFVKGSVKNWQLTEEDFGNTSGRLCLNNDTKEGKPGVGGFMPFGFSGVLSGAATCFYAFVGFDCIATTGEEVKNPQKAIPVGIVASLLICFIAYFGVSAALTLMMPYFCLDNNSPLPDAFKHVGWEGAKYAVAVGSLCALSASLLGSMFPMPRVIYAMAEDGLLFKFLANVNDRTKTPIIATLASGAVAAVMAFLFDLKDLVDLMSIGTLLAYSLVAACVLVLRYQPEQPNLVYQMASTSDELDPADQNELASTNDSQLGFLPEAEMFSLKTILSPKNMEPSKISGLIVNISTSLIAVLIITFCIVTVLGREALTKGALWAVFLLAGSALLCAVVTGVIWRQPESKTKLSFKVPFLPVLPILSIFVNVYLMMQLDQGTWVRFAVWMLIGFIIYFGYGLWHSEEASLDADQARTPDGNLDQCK
Sequence of human amylin receptor 3 (hAMY3R; complex of hCTR and hRAMP3) (human) (chain, as listed by the source limits assumed, chain 2 of 2): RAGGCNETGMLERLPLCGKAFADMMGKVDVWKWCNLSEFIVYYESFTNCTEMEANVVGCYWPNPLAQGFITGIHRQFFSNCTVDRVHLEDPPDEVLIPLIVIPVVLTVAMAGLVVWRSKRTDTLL
Sequence of rat amylin receptor (calcitonin receptor plus RAMP3) (rat) (P32214 25-516, chain 1 of 2): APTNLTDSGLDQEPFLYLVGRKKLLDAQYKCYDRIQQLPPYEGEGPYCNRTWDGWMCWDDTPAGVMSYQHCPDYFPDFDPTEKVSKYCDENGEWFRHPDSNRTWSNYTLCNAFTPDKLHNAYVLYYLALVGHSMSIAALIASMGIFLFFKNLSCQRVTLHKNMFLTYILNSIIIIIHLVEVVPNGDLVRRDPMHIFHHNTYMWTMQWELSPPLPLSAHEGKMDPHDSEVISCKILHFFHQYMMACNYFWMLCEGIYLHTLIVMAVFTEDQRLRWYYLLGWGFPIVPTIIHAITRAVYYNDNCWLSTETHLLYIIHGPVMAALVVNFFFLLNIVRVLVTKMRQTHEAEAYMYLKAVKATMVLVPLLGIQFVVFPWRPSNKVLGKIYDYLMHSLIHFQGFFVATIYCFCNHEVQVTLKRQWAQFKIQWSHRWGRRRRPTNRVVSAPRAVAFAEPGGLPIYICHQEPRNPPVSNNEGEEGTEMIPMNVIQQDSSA
Sequence of rat amylin receptor (calcitonin receptor plus RAMP3) (rat) (Q9JJ73 23-147, chain 2 of 2, further chain): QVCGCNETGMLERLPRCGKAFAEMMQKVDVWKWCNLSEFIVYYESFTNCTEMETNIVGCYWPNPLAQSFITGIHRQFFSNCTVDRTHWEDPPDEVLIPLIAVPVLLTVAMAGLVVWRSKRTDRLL

Row | Molecule | Relative potency ratio (AMY3R/CTR), Rat [1] | Relative potency ratio (AMY3R/CTR), Human [2] | Relative potency ratio (AMY3R/CTR), Human; cAMP accumulation assay, 0.1% BSA [3] | Relative potency ratio (AMY3R/CTR), Rat; cAMP accumulation assay, 0.1% BSA [4] | other results
1 | tirzepatide [GLP/GIP] | – | – | – | – | change in lean mass (g) [5, 7]: no effect at 2 nmol/kg; change in lean mass (g) [5, 8]: significant reduction vs. vehicle; body weight change [5, 7]: −1.7%; body weight change [5, 8]: −8.9%; body weight change ([5]; mono-treatment 10 nmol/kg SC QD): −8.1%; change in fat mass (g) ([5]; end of study (week 4), EchoMRI, FIG. 6C): dose-dependent decrease in fat mass; change in lean mass (g) ([5]; end of study, EchoMRI, mono-treatment, FIG. 6D): dose-dependent decrease of lean mass
2 | petrelintide [DACRA 2] | 0.03 | 0.05 | – | – | –
3 | CC[C@H](C)[C@H](NC(=O)[C@@H]1CCCN1C(=O)CNC(=O)[C@H](Cc1ccccc1)NC(=O)[C@H](CC(N)=O)NC(=O)[C@H](CC(N)=O)NC(=O)[C@H](CO)NC(=O)[C@H](CO)NC(=O)[C@H](Cc1c[nH]cn1)NC(=O)[C@@H](NC(=O)[C@H](CC(C)C)NC(=O)[C@H](Cc1ccccc1)NC(=O)[C@H](CC(N)=O)NC(=O)[C@H](C)NC(=O)[C@H](CC(C)C)NC(=O)[C@H](CCCNC(=N)N)NC(=O)[C@H](CCC(N)=O)NC(=O)[C@@H](NC(=O)[C@H](C)NC(=O)[C@@H]1CSSC[C@H](NC(=O)[C@@H](N)CCCCN)C(=O)N[C@@H](CC(N)=O)C(=O)N[C@@H]([C@@H](C)O)C(=O)N[C@@H](C)C(=O)N[C@@H]([C@@H](C)O)C(=O)N1)[C@@H](C)O)C(C)C)C(=O)N[C@@H](CC(C)C)C(=O)N1CCC[C@H]1C(=O)N1CCC[C@H]1C(=O)N[C@H](C(=O)N[C@@H](CC(N)=O)C(=O)N[C@H](C(=O)NCC(=O)N[C@@H](CO)C(=O)N[C@@H](CC(N)=O)C(=O)N[C@H](C(=O)N[C@@H](Cc1ccc(O)cc1)C(N)=O)[C@@H](C)O)C(C)C)[C@@H](C)O [Pramlintide] | 1.0 | 1.0 | – | – | –
4 | SARA 2 (eloralintide) (peptide) | – | – | 0.24 | 0.14 | –
5 | hAmylin (from UniProt P10997 34-70) (peptide) | – | – | 1.8 | 0.9 | –
6 | H(Aib)QGTFTSDVSK(αMePhe)LDTK(O2Oc-O2Oc-γE-C18diacid)RARDFVQWLLE(Aib)G-acid (H[Aib]QGTFTSDVSK[αMeF]LDTK([AEEA-AEEA-γGlu-C18 diacid])RARDFVQWLLE[Aib]G-OH; N-terminus assumed; SMILES CC(C)C[C@H](NC(=O)[C@H](Cc1c[nH]c2ccccc12)NC(=O)[C@H](CCC(N)=O)NC(=O)[C@@H](NC(=O)[C@H](Cc1ccccc1)NC(=O)[C@H](CC(=O)O)NC(=O)[C@H](CCCNC(=N)N)NC(=O)[C@H](C)NC(=O)[C@H](CCCNC(=N)N)NC(=O)[C@H](CCCCNC(=O)COCCOCCNC(=O)COCCOCCNC(=O)CC[C@H](NC(=O)CCCCCCCCCCCCCCCCC(=O)O)C(=O)O)NC(=O)[C@@H](NC(=O)[C@H](CC(=O)O)NC(=O)[C@H](CC(C)C)NC(=O)[C@](C)(Cc1ccccc1)NC(=O)[C@H](CCCCN)NC(=O)[C@H](CO)NC(=O)[C@@H](NC(=O)[C@H](CC(=O)O)NC(=O)[C@H](CO)NC(=O)[C@@H](NC(=O)[C@H](Cc1ccccc1)NC(=O)[C@@H](NC(=O)CNC(=O)[C@H](CCC(N)=O)NC(=O)C(C)(C)NC(=O)[C@@H](N)Cc1c[nH]cn1)[C@@H](C)O)[C@@H](C)O)C(C)C)[C@@H](C)O)C(C)C)C(=O)N[C@@H](CC(C)C)C(=O)N[C@@H](CCC(=O)O)C(=O)NC(C)(C)C(=O)NCC(=O)O) [GLP-1/GCG of SEQ ID NO: 35] | – | – | – | – | Body weight at study day 92 vs Vehicle ([6]; both male and female, groups 2-5): significantly lower; Body Weight Comparison, Day 92 vs. Control Group 1 Day 92 ([6]; female): 90%; Body Weight Gain (Day 92 vs Day −1) ([6]; female): 112%; Mean Body Weight at Day 92 ([6]; female): 225.4 grams; Body Weight Comparison, Day 92 vs. Control Group 1 Day 92 ([6]; male): 80%; Body Weight Gain (Day 92 vs Day −1) ([6]; male): 119%; Mean Body Weight at Day 92 ([6]; male): 325.5 grams

More lines, main results first:

Row | Relative potency ratio (AMY3R/CTR), Rat [1] | Relative potency ratio (AMY3R/CTR), Human [2] | Relative potency ratio (AMY3R/CTR), Human; cAMP accumulation assay, 0.1% BSA [3] | Relative potency ratio (AMY3R/CTR), Rat; cAMP accumulation assay, 0.1% BSA [4] | Molecule | other results
7 | 0.14 | 0.24 | – | – | eloralintide [SARA 2] | –
8 | 0.9 | 1.8 | – | – | hAmylin: human amylin, non-lipidated (KCNTATCATQRLANFLVHSSNNFGAILSSTNVGSNTY; not fully specified (C-terminus, bridges); cysteine pairing not given here) | –
9 | – | – | 0.05 | 0.03 | DACRA 2 (petrelintide) (peptide) | –
10 | – | – | 0.08 | 0.01 | DACRA 1 (cagrilintide) (peptide) | –
